Reference: patent US20100010219A1, “METHOD FOR PRODUCING PYRROLIDINE COMPOUND” (JAPAN TOBACCO INC., priority 2006, published 2010)
Where a name gives a salt, the structure may show the parent alone.

What follows are molecules tested against T1, human HSD-1 (recombinant HSD-1) (Homo sapiens, UniProt P28845) (assay: HSD-1 activity inhibitory action in vitro (SPA, conversion of cortisone to cortisol)). Conditions: recombinant human HSD-1 expressed using baculovirus system; 10 nM 3H cortisone, 500 μM NADPH; room temperature 90 to 120 min; read-out: hHSD1 (IC50 (nM)).
T1 construct: made in house
Format: biochemical

T1 sequence (P28845 whole entry): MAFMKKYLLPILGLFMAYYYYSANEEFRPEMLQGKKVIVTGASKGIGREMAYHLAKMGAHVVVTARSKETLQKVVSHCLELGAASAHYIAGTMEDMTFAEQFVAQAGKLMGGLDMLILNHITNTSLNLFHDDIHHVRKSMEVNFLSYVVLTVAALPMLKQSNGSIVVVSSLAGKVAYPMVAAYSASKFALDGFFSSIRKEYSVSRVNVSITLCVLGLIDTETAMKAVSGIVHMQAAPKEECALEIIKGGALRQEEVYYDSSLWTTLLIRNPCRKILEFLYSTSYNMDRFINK

IC50, < 30 nM:
O=C(c1cnn(C2CCN(C(=O)N3CCC(F)(F)CC3)CC2)c1C1CC1)N1CC[C@@H](c2ccccc2C(F)(F)F)C1 [Example 18, 1-{5-cyclopropyl-1-[1-(4,4-difluoropiperidine-1-carbonyl)piperidin-4-yl]-1H-pyrazole-4-carbonyl}-[(S)-3-(2-trifluoromethylphenyl)]pyrrolidine]
CC(=O)N[C@@H](C)C(=O)N1CCC(n2ncc(C(=O)N3CC[C@@H](c4ccccc4C(F)(F)F)C3)c2C2CC2)CC1 [Example 71, 1-(1-{1-[(S)-2-acetylaminopropionyl]piperidin-4-yl}-5-cyclopropyl-1H-pyrazole-4-carbonyl)-[(S)-3-(2-trifluoromethylphenyl)]pyrrolidine]
CC(C)[C@@H](CO)NC(=O)N1CCC(n2ncc(C(=O)N3CC[C@@H](c4ccccc4C(F)(F)F)C3)c2C2CC2)CC1 [Example 49, 1-(5-cyclopropyl-1-{1-[(S)-1-hydroxymethyl-2-methylpropylcarbamoyl]piperidin-4-yl}-1H-pyrazole-4-carbonyl)-[(S)-3-(2-trifluoromethylphenyl)]pyrrolidine]
O=C(c1cnn(C2CCN(S(=O)(=O)CC(F)(F)F)CC2)c1C1CC1)N1CC[C@@H](c2ccccc2C(F)(F)F)C1 [Example 109, 1-{5-cyclopropyl-1-[1-(2,2,2-trifluoroethanesulfonyl)piperidin-4-yl]-1H-pyrazole-4-carbonyl}-[(S)-3-(2-trifluoromethylphenyl)]pyrrolidine]
O=C(c1cnn(C2CCN(C(=O)N3CCC(O)C3)CC2)c1C1CC1)N1CC[C@@H](c2ccccc2C(F)(F)F)C1 (stereo partly drawn) [Example 16, 1-{5-cyclopropyl-1-[1-(3-hydroxypyrrolidine-1-carbonyl)piperidin-4-yl]-1H-pyrazole-4-carbonyl}-[(S)-3-(2-trifluoromethylphenyl)]pyrrolidine]
O=C(COc1ccccc1)N1CCC(n2ncc(C(=O)N3CCC(c4cccnc4)C3)c2C2CC2)CC1 (stereo not shown) [Example 155, 1-{5-cyclopropyl-1-[1-(2-phenoxyacetyl)piperidin-4-yl]-1H-pyrazole-4-carbonyl}-3-(pyridin-3-yl)pyrrolidine]
O=C(O)c1ccc(N2CCC(n3ncc(C(=O)N4CCC(c5ccccc5C(F)(F)F)C4)c3C3CC3)CC2)c(F)c1 (stereo not shown) [Example 183, Sodium 4-(4-{5-cyclopropyl-4-[3-(2-trifluoromethylphenyl)pyrrolidine-1-carbonyl]pyrazol-1-yl}piperidin-1-yl)-3-fluorobenzoate]
CS(=O)(=O)NC(=O)N1CCC(n2ncc(C(=O)N3CC[C@@H](c4ccccc4C(F)(F)F)C3)c2C2CC2)CC1 [Example 56, 1-[5-cyclopropyl-1-(1-methanesulfonylaminocarbonylpiperidin-4-yl)-1H-pyrazole-4-carbonyl]-[(S)-3-(2-trifluoromethylphenyl)]pyrrolidine]
O=C(NS(=O)(=O)c1ccccc1)N1CCC(n2ncc(C(=O)N3CC[C@@H](c4ccccc4C(F)(F)F)C3)c2C2CC2)CC1 [Example 55, 1-[1-(1-benzenesulfonylaminocarbonylpiperidin-4-yl)-5-cyclopropyl-1H-pyrazole-4-carbonyl]-[(S)-3-(2-trifluoromethylphenyl)]pyrrolidine]
NC(=O)C1CN(C(=O)N2CCC(n3ncc(C(=O)N4CC[C@@H](c5ccccc5C(F)(F)F)C4)c3C3CC3)CC2)C1 [Example 34, 1-{1-[1-(3-carbamoylazetidine-1-carbonyl)piperidin-4-yl]-5-cyclopropyl-1H-pyrazole-4-carbonyl}-[(S)-3-(2-trifluoromethylphenyl)]pyrrolidine]
NC(=O)N[C@H]1CC[C@H](n2ncc(C(=O)N3CC[C@@H](c4ccccc4C(F)(F)F)C3)c2C2CC2)CC1 [Example 131, 1-[5-cyclopropyl-1-(trans-4-ureidocyclohexyl)-1H-pyrazole-4-carbonyl]-[(S)-3-(2-trifluoromethylphenyl)]pyrrolidine]
O=C(Nc1ccccc1F)N1CCC(n2ncc(C(=O)N3CCC(c4cccnc4)C3)c2C2CC2)CC1 (stereo not shown) [Example 3, 1-{5-cyclopropyl-1-[1-(2-fluorophenylcarbamoyl)piperidin-4-yl]-1H-pyrazole-4-carbonyl}-3-(pyridin-3-yl)pyrrolidine]
CC(C)NC(=O)N1CCC(n2ncc(C(=O)N3CC[C@@H](c4ccccc4C(F)(F)F)C3)c2C2CC2)CC1 [Example 125, 1-{5-cyclopropyl-1-[1-(1-isopropylcarbamoyl)piperidin-4-yl]-1H-pyrazole-4-carbonyl}-[(S)-3-(2-trifluoromethylphenyl)]pyrrolidine]
NC1CCN(C(=O)N2CCC(n3ncc(C(=O)N4CC[C@@H](c5ccccc5C(F)(F)F)C4)c3C3CC3)CC2)C1 (stereo partly drawn) [Example 36, 1-{1-[1-(3-aminopyrrolidine-1-carbonyl)piperidin-4-yl]-5-cyclopropyl-1H-pyrazole-4-carbonyl}-[(S)-3-(2-trifluoromethylphenyl)]pyrrolidine hydrochloride]
O=C(c1cnn(C2CCN(C(=O)N3CC[C@@H](O)C3)CC2)c1C1CC1)N1CC[C@@H](c2ccccc2C(F)(F)F)C1 [Example 21, 1-(5-cyclopropyl-1-{1-[(R)-3-hydroxypyrrolidine-1-carbonyl]piperidin-4-yl}-1H-pyrazole-4-carbonyl)-[(S)-3-(2-trifluoromethylphenyl)]pyrrolidine]
O=C(OCCN1CCCCC1)N1CCC(n2ncc(C(=O)N3CC[C@@H](c4ccccc4C(F)(F)F)C3)c2C2CC2)CC1 [Example 60, 1-{5-cyclopropyl-1-[1-(2-piperidin-1-yl-ethoxycarbonyl)piperidin-4-yl]-1H-pyrazole-4-carbonyl}-[(S)-3-(2-trifluoromethylphenyl)]pyrrolidine hydrochloride]
O=C(c1cnn(C2CCN(C(=O)N3CCC[C@H]3CO)CC2)c1C1CC1)N1CC[C@@H](c2ccccc2C(F)(F)F)C1 [Example 27, 1-(5-cyclopropyl-1-{1-[(S)-2-hydroxymethylpyrrolidine-1-carbonyl]piperidin-4-yl}-1H-pyrazole-4-carbonyl)-[(S)-3-(2-trifluoromethylphenyl)]pyrrolidine]
O=C(c1cnn(C2CCN(c3ccc(N4CCOC4=O)cc3)CC2)c1C1CC1)N1CCC(c2ccccc2C(F)(F)F)C1 (stereo not shown) [Example 169, 1-(5-cyclopropyl-1-{1-[4-(2-oxooxazolidin-3-yl)phenyl]piperidin-4-yl}-1H-pyrazole-4-carbonyl)-3-(2-trifluoromethylphenyl)pyrrolidine]
NC(=O)C1CCN(C(=O)N2CCC(n3ncc(C(=O)N4CC[C@@H](c5ccccc5C(F)(F)F)C4)c3C3CC3)CC2)CC1 [Example 33, 1-{1-[1-(4-carbamoylpiperidine-1-carbonyl)piperidin-4-yl]-5-cyclopropyl-1H-pyrazole-4-carbonyl}-[(S)-3-(2-trifluoromethylphenyl)]pyrrolidine]
NC(=O)N1CCC(n2ncc(C(=O)N3CC[C@@H](c4ccccc4C(F)(F)F)C3)c2C2CC2)CC1 [Example 4, 1-[1-(1-carbamoylpiperidin-4-yl)-5-cyclopropyl-1H-pyrazole-4-carbonyl]-[(S)-3-(2-trifluoromethylphenyl)]pyrrolidine]
NCCC(=O)N1CCC(n2ncc(C(=O)N3CC[C@@H](c4ccccc4C(F)(F)F)C3)c2C2CC2)CC1 [Example 83, 1-{1-[1-(3-aminopropionyl)piperidin-4-yl]-5-cyclopropyl-1H-pyrazole-4-carbonyl}-[(S)-3-(2-trifluoromethylphenyl)]pyrrolidine hydrochloride]
COC(=O)c1ccc(N2CCC(n3ncc(C(=O)N4CCC(c5ccccc5C(F)(F)F)C4)c3C3CC3)CC2)nc1 (stereo not shown) [Example 178, methyl 6-(4-{5-cyclopropyl-4-[3-(2-trifluoromethylphenyl)pyrrolidine-1-carbonyl]pyrazol-1-yl}piperidin-1-yl)nicotinate]
CC1(c2c(C(=O)N3CCC(c4ccccc4C(F)(F)F)C3)cnn2[C@H]2CC[C@@H](C(=O)O)CC2)CC1 (stereo partly drawn) [Example 191, cis-4-{5-(1-methylcyclopropyl)-4-[3-(2-trifluoromethylphenyl)pyrrolidine-1-carbonyl]pyrazol-1-yl}cyclohexanecarboxylic acid]
O=C(c1cnn(C2CCN(C(=O)C3(CO)CC3)CC2)c1C1CC1)N1CC[C@@H](c2ccccc2C(F)(F)F)C1 [Example 78, 1-{5-cyclopropyl-1-[1-(1-hydroxymethylcyclopropanecarbonyl)piperidin-4-yl]-1H-pyrazole-4-carbonyl}-[(S)-3-(2-trifluoromethylphenyl)]pyrrolidine]
CC1(c2c(C(=O)N3CCC(CO)(c4cc(F)cc(F)c4)C3)cnn2C2CCN(c3ncccn3)CC2)CC1 (stereo not shown) [Example 186, 3-(3,5-difluorophenyl)-3-hydroxymethyl-1-{5-(1-methylcyclopropyl)-1-[1-(pyrimidin-2-yl)piperidin-4-yl]-1H-pyrazole-4-carbonyl}pyrrolidine hydrochloride]
COC(=O)N1CCC(n2ncc(C(=O)N3CC[C@@H](c4ccccc4C(F)(F)F)C3)c2C2CC2)CC1 [Example 57, 1-[5-cyclopropyl-1-(1-methoxycarbonylpiperidin-4-yl)-1H-pyrazole-4-carbonyl]-[(S)-3-(2-trifluoromethylphenyl)]pyrrolidine]
O=C(OC1CCNCC1)N1CCC(n2ncc(C(=O)N3CC[C@@H](c4ccccc4C(F)(F)F)C3)c2C2CC2)CC1 [Example 61, 1-{5-cyclopropyl-1-[1-(piperidin-4-yl-oxycarbonyl)piperidin-4-yl]-1H-pyrazole-4-carbonyl}-[(S)-3-(2-trifluoromethylphenyl)]pyrrolidine hydrochloride]
O=C(c1cccc(Cl)c1)N1CCC(n2ncc(C(=O)N3CCC(c4cccnc4)C3)c2C2CC2)CC1 (stereo not shown) [Example 156, 1-{1-[1-(3-chlorobenzoyl)piperidin-4-yl]-5-cyclopropyl-1H-pyrazole-4-carbonyl}-3-(pyridin-3-yl)pyrrolidine]
